Test results: US20240368121A1, “ESTROGEN RECEPTOR DEGRADERS, PHARMACEUTICAL COMPOSITIONS THEREOF, AND THEIR THERAPEUTIC APPLICATIONS” (BioTheryX, Inc., priority 2021, published 2024)

Legend:
[1] = molecular target: T1, ERα (Homo sapiens, UniProt P03372); test: Protein degradation assay: ERα in MCF-7 cells via western blot; format: cell-based; conditions: 6 h; for ERα Protein Degradation 1 nM: 1 nM compound; for ERα Protein Degradation 10 nM: 10 nM compound; for ERα Protein Degradation 100 nM: 100 nM compound
T1 construct: degrading an ERα in MCF-7 cells via a western blot; endogenous in cells; host or cells: MCF-7
T1 sequence (P03372 1-595): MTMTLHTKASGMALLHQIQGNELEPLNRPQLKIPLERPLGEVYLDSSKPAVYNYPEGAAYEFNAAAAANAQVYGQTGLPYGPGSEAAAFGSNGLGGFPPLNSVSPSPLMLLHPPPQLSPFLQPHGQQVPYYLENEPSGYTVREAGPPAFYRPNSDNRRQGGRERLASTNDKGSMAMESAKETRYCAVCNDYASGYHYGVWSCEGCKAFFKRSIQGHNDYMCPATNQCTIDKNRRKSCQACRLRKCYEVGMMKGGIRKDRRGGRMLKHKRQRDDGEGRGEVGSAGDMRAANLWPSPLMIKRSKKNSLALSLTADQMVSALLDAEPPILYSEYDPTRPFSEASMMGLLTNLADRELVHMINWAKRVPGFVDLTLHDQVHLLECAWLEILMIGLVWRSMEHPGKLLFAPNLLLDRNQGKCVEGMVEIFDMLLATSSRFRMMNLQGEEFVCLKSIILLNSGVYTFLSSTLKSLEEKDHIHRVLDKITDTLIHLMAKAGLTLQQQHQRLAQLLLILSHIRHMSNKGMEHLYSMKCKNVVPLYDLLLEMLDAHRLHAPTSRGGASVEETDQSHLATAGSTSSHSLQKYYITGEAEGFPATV
Experimental: A compound provided herein was assessed for its activity in degrading an ERα in MCF-7 cells via a western blot. The MCF7 cells were cultured at 37° C. in a humidified 5% C02 environment in MEM supplemented with 10% FBS with insulin. The cells were seeded in 12-well plates at a density of 300,000 cells per well in maintenance media. Cells were treated with the compound at predetermined concentrations (e.g., 1 nM, 10 nM, 100 nM, and 1 μM) for 6 h. The cells were then washed in PBS and the whole cells were lysed in a cell lysis buffer and incubated for 15 minutes on ice. Cell debris was removed by high-speed centrifugation and the cleared whole cell lysates were prepared for further analysis by a western blot. The whole cell protein extracts were separated on SDS-polyacrylamide gels, transferred to nitrocellulose membranes, and probed with primary antibodies, including anti-ERα antibody and GAPDH antibody for loading control. The membranes were subsequently washed and probed with secondary antibodies for chemiluminescence, followed by imaging on a BIORAD CHEMIDOC Imaging System. The results are summarized in Table 2, where “A” represents a percentage degradation value of no less than 50%; “B” represents a percentage degradation value of less than 50% and no less than 25%; “C” represents a percentage degradation value of less than 25% and no less than 10%; and “D” represents a percentage degradation value of less than 10%.

[2] = system: MCF7 cells; test: Cell viability assay ([…]-GLO, 6-day treatment); format: cell-based; conditions: Homo sapiens, MCF7, 144 h; MCF-7 cells, 6 days, CTG; read-out: Inhibition of Cancerous Cells IC50 MCF-7
Experimental: A compound provided herein was evaluated for its anticancer activity in MCF7 and T47D cells. MCF7 and T47D cells were cultured at 37° C. in a humidified 5% C02 environment in MEM or RPMI, supplemented with 10% FBS with insulin, respectively. The cells were plated in 384-well microplates at a density of 1,000 cells per well in their respective maintenance media. The cells were treated with the compound by a 10-point dose response curve for 6 days, during which, the medium and compound were refreshed once. After the 6-day treatment, the cell viability was assessed using […]-GLO (CTG) reagent. Luminescence was measured with a microplate reader.

| SMILES | ERα Protein Degradation 1 nM [1] | ERα Protein Degradation 10 nM [1] | ERα Protein Degradation 100 nM [1] | IC50 [2] [nM] |
| --- | --- | --- | --- | --- |
| Cc1c(-c2ccc(O)cc2)n(Cc2ccc(OCCCCN3CCN(C(=O)COc4cccc(C5CCC(=O)NC5=O)c4)CC3)cc2)c2ccc(O)cc12 (centres unmarked) [Compound E25, 3-(3-(2-(4-(4-(4-((5-Hydroxy-2-(4-hydroxyphenyl)-3-methyl-1H-indol-1-yl)-methyl)phenoxy)butyl)piperazin-1-yl)-2-oxoethoxy)phenyl)piperidine-2,6-dione] | D (a percentage degradation value of less than 10%) | D (a percentage degradation value of less than 10%) | D (a percentage degradation value of less than 10%) | 5 |
| O=C1CCC(N2Cc3c(csc3COc3ccc(CNCCCCCOc4ccc([C@@H]5c6ccc(O)cc6CC[C@@H]5c5ccccc5)cc4)cc3)C2=O)C(=O)N1 (stereo partly drawn) [Compound A9, 3-(1-((4-(((5-(4-((1R,2S)-6-hydroxy-2-phenyl-1,2,3,4-tetrahydronaphthalen-1-yl)phenoxy)pentyl)amino)methyl)phenoxy)methyl)-4-oxo-4H-thieno[3,4-c]pyrrol-5(6H)-yl)piperidine-2,6-dione] | B (a percentage degradation value of less than 50% and no less than 25%) | B (a percentage degradation value of less than 50% and no less than 25%) | B (a percentage degradation value of less than 50% and no less than 25%) | 1.4 |
| O=C1CCC(N2Cc3c(csc3COc3ccc(CNCCCCCOc4ccc([C@@H]5c6ccc(O)cc6CC[C@@H]5c5ccccc5)cc4)cc3)C2=O)C(=O)N1 (stereo in doubt) [Compound A17, 3-(1-((4-(((5-(4-((1R,2S)-6-Hydroxy-2-phenyl-1,2,3,4-tetrahydronaphthalen-1-yl)phenoxy)pentyl)amino)methyl)phenoxy)methyl)-4-oxo-4H-thieno[3,4-c]pyrrol-5(6H)-yl)piperidine-2,6-dione] | B (a percentage degradation value of less than 50% and no less than 25%) | C (a percentage degradation value of less than 25% and no less than 10%) | D (a percentage degradation value of less than 10%) | 1160 |
| Cn1nc(C2CCC(=O)NC2=O)c2ccc(OCC(=O)N3CCN(CCCCOc4ccc(CC5(C)C(c6ccc(O)cc6)=Nc6ccc(O)cc65)cc4)CC3)cc21 (centres unmarked) [Compound D5, 3-(6-(2-(4-(4-(4-((5-Hydroxy-2-(4-hydroxyphenyl)-3-methyl-3H-indol-3-yl)-methyl)phenoxy)butyl)piperazin-1-yl)-2-oxoethoxy)-1-methyl-1H-indazol-3-yl)piperidine-2,6-dione] | C (a percentage degradation value of less than 25% and no less than 10%) | D (a percentage degradation value of less than 10%) | C (a percentage degradation value of less than 25% and no less than 10%) | 136 |
| O=C1CCC(N2Cc3sc(C4CCN(CC5CCN(c6ccc([C@@H]7c8ccc(O)cc8CC[C@@H]7c7ccccc7)cc6)CC5)CC4)cc3C2=O)C(=O)N1 (stereo partly drawn) [Compound A10, 3-(2-(1-((1-(4-((1R,2S)-6-hydroxy-2-phenyl-1,2,3,4-tetrahydronaphthalen-1-yl)phenyl)piperidin-4-yl)methyl)piperidin-4-yl)-4-oxo-4,6-dihydro-5H-thieno[2,3-c]pyrrol-5-yl)piperidine-2,6-dione] | D (a percentage degradation value of less than 10%) | D (a percentage degradation value of less than 10%) | D (a percentage degradation value of less than 10%) | 0.82 |
| O=C1CCC(N2Cc3sc(C4CCN(CCCCOc5ccc([C@@H]6c7ccc(O)cc7CC[C@@H]6c6ccccc6)cc5)CC4)cc3C2=O)C(=O)N1 (stereo partly drawn) [Compound A20, 3-(2-(1-(4-(4-((1R,2S)-6-Hydroxy-2-phenyl-1,2,3,4-tetrahydronaphthalen-1-yl)-phenoxy)butyl)piperidin-4-yl)-4-oxo-4,6-dihydro-5H-thieno[2,3-c]pyrrol-5-yl)piperidine-2,6-dione] | D (a percentage degradation value of less than 10%) | D (a percentage degradation value of less than 10%) | D (a percentage degradation value of less than 10%) | 0.05 |
| O=C1CCC(c2ccc(OCC(=O)N3CCN(CCCCOc4ccc([C@H]5c6ccc(O)cc6CC[C@H]5c5ccccc5)cc4)CC3)cc2)C(=O)N1 (stereo partly drawn) [Compound B44, 3-(4-(2-(4-(4-(4-((1S,2R)-6-Hydroxy-2-phenyl-1,2,3,4-tetrahydronaphthalen-1-yl)phenoxy)butyl)piperazin-1-yl)-2-oxoethoxy)phenyl)piperidine-2,6-dione] | B (a percentage degradation value of less than 50% and no less than 25%) | C (a percentage degradation value of less than 25% and no less than 10%) | C (a percentage degradation value of less than 25% and no less than 10%) | 107 |
| Cc1c(-c2ccc(O)cc2)n(Cc2ccc(OCCCCN3CCN(c4cc5c(s4)CN(C4CCC(=O)NC4=O)C5=O)CC3)cc2)c2ccc(O)cc12 (centres unmarked) [Compound E6, 3-(2-(4-(4-(4-((5-Hydroxy-2-(4-hydroxyphenyl)-3-methyl-1H-indol-1-yl)methyl)-phenoxy)butyl)piperazin-1-yl)-4-oxo-4,6-dihydro-5H-thieno[2,3-c]pyrrol-5-yl)piperidine-2,6-dione] | D (a percentage degradation value of less than 10%) | D (a percentage degradation value of less than 10%) | D (a percentage degradation value of less than 10%) | 0.22 |
| Cn1nc(C2CCC(=O)NC2=O)c2ccc(OCC(=O)N3CCN(CCCCOc4ccc([C@H]5c6ccc(O)cc6CC[C@H]5c5ccccc5)cc4)CC3)cc21 (stereo partly drawn) [Compound B24, 3-(6-(2-(4-(4-(4-((1S,2R)-6-Hydroxy-2-phenyl-1,2,3,4-tetrahydronaphthalen-1-yl)phenoxy)butyl)piperazin-1-yl)-2-oxoethoxy)-1-methyl-1H-indazol-3-yl)piperidine-2,6-dione] | C (a percentage degradation value of less than 25% and no less than 10%) | C (a percentage degradation value of less than 25% and no less than 10%) | C (a percentage degradation value of less than 25% and no less than 10%) | 66 |
| Cn1nc(C2CCC(=O)NC2=O)c2ccc(OCC(=O)N3CCN(CC4CCN(c5ccc([C@@H]6c7ccc(O)cc7CC[C@@H]6c6ccccc6)cc5)CC4)CC3)cc21 (stereo partly drawn) [Compound B27, 3-(6-(2-(4-((1-(4-((1R,2S)-6-Hydroxy-2-phenyl-1,2,3,4-tetrahydronaphthalen-1-yl)phenyl)piperidin-4-yl)methyl)piperazin-1-yl)-2-oxoethoxy)-1-methyl-1H-indazol-3-yl)-piperidine-2,6-dione] | D (a percentage degradation value of less than 10%) | B (a percentage degradation value of less than 50% and no less than 25%) | D (a percentage degradation value of less than 10%) | 0.99 |
| Cc1c(-c2ccc(O)cc2)n(Cc2ccc(OCCCCN3CCN(C(=O)COc4ccc5c(C6CCC(=O)NC6=O)nn(C)c5c4)CC3)cc2)c2ccc(O)cc12 (centres unmarked) [Compound E14, 3-(6-(2-(4-(4-(4-((5-Hydroxy-2-(4-hydroxyphenyl)-3-methyl-1H-indol-1-yl)-methyl)phenoxy)butyl)piperazin-1-yl)-2-oxoethoxy)-1-methyl-1H-indazol-3-yl)piperidine-2,6-dione] | B (a percentage degradation value of less than 50% and no less than 25%) | B (a percentage degradation value of less than 50% and no less than 25%) | D (a percentage degradation value of less than 10%) | 0.33 |
